Data set [1] concerns the target T1, glycine binding site of the NMDA receptor channel (Rattus norvegicus, UniProt P35439).
T1 construct: from tissue; host or cells: rat brain cortex and hippocampus membrane homogenate (male Wistar rats, Charles River)
The data set can be described thus: Receptor binding test, displacement of (3H)-MDL 105.519 on rat cerebral membrane homogenates. As to conditions: rat cortex and hippocampus membranes, 1 nmol/l (3H)-MDL 105.519; Ki from IC50 by Cheng-Prusoff. How it is done:
Studies for determination of the affinity of the substituted pyrrolidine-2,3,4-trione 3-oxime derivatives of the general formula I according to the invention for the glycine binding site of the NMDA receptor channel were carried out on cerebral membrane homogenates (homogenate of the cortex and hippocampus area from the brain of male rats, Wistar strain, Charles River, WIGA GmbH, Sulzbach, Germany) by the method of Baron B. M. et al, J. Pharmacol. Exp. Ther., vol. 279, pp.62-68 (1996). […]
In the binding test, 50 mmol/l TRIS-acetate buffer pH 7.0 was employed as the buffer and 1 nmol/l (^3H)-MDL 105.519 (Baron B. M. et al, J. Pharmacol. Exp. Ther., vol. 279, pp. 62-68 (1996)) was employed as the radioactive ligand. The proportion of non-specific binding was determined in the presence of 1 mmol/l glycine.
In further batches, the compounds according to the invention were added in concentration series and the displacement of the radioactive ligand from its specific binding to the glycine binding site of the NMDA receptor channel was determined. […]

The subject of a further data set is male albino mice (NMRI). In words: Formalin test in mice, second (late) phase. The class given is in vivo. As to conditions: second (late) phase of formalin test.
The subject of the next data set is male NMRI mice. The data set can be described thus: Phenylquinone-induced writhing test in the mouse. Format: in vivo. How it is done:
The study of the analgesic activity was also carried out in the phenylquinone-induced writhing in the mouse (modified by I. C. Hendershot et al, (1959) J. Pharmacol. Exp. Ther., vol. 125, pp. 237-240). Male NMRI mice weighing 25 to 30 g (Iffa, Credo, Belgium, were used for this. Groups of 10 animals per substance dose received 0.3 ml/mouse of a 0.02% aqueous solution of phenylquinone (phenylbenzoquinone, Sigma, Deisenhofen; preparation of the solution with the addition of 5% ethanol and storage in a water bath at 45° C.) administered intraperitoneally 10 minutes after intravenous administration of the particular compound. The animals were placed individually in observation cages. The number of pain-induced stretching movements (so-called writhing reactions=straightening of the body with stretching of the hind extremities) was counted by means of a push-button counter for 5 to 20 minutes after the administration of phenylquinone. Animals which received only physiological saline solution were also run as a control. All the substances were tested in the standard dosage of 10 mg/kg of body weight of the mouse. The percentage inhibition (% inhibition) of the writhing reaction by a substance was calculated according to the following equation: [formula]
For some of the compounds according to the invention the ED50 values with the 95% confidence range of the writhing reaction were calculated by means of regression analysis (evaluation program from Martens EDV Service, Eckental) from the dose-dependent decrease in the writhing reactions compared with phenylquinone control groups investigated in parallel.
The study of the analgesic activity was carried out in the phenylquinone-induced writhing in mice as described above.
A general note: In writhing tests, fewer writhes than in controls are read as antinociception.

As usually defined, the melting point is the temperature of the solid-liquid transition. By Ki is commonly meant a measure of affinity in units of concentration, obtained from inhibition or displacement.

Method for male albino mice (NMRI): The studies for determination of the antinociceptive action of the compounds according to the invention were carried out in the formalin test in male albino mice (NMRI, 25-35 g, Iffa Credo, Belgium).
The compounds according to the invention were investigated in the second phase of the formalin test to obtain information on the actions of the compounds according to the invention on chronic/inflammatory pain.
By a single subcutaneous formalin injection (20 μl, 1% aqueous solution) into the dorsal side of the right hind paw of freely mobile test animals, a nociceptive reaction was induced, which manifests itself in significant licking and biting of the paw affected.
For the investigation period in the second (late) phase of the formalin test, the nociceptive behavior was recorded continuously by observing the animals. […] After injection of substances which have an antinociceptive action in the formalin test, the modes of behaviour described for the animals are reduced, and possibly even eliminated. […] The behaviour of the rats after administration of the substance was compared with a control group (10 mice per substance dose).
On the basis of the quantification of the pain properties, the action of the substance in the formalin test was determined as a change from the control in per cent. The ED50 calculations were made by means of regression analysis. […]

Compound `COC(=C1NC(=O)C(=NO)C1=O)c1ccccc1` [Example 1, 5-(Methoxyphenylmethylene)-pyrrolidine-2,3,4-trione 3-oxime] came in with a melting point of 174 °C.
`O=C1NC(=C(Br)c2ccccc2)C(=O)C1=NO` [Example 2, 5-(Bromophenylmethylene)-pyrrolidine-2,3,4-trione 3-oxime] returned a melting point of 158 °C. In data set [1], this compound gave a Ki of 430 nM. In addition, the “% change from the control at 10 mg/kg” value in the data set on male albino mice (NMRI) is given as 36.3%.
In turn, `O=C1NC(=Cc2ccccc2Cl)C(=O)C1=NO` [Example 4, 5-(2-Chlorobenzylidene)-pyrrolidine-2,3,4-trione 3-oxime] yielded a melting point of 176 °C. Also, the “% inhibition of the writhing reaction at 10 mg/kg intravenously” value (“% inhibition of the writhing reaction” for short) in the data set on male NMRI mice is listed as 55%.
With `O=C1NC(=Cc2ccc(Cl)cc2)C(=O)C1=NO` [Example 5, 5-(4-Chlorobenzylidene)-pyrrolidine-2,3,4-trione 3-oxime], the melting point came out at 190 °C. In the data set with male NMRI mice, the “% inhibition of the writhing reaction” value is reported as 50%.
`O=C1NC(=Cc2cccc(Cl)c2Cl)C(=O)C1=NO` [Example 6, 5-(2,3-Dichlorobenzylidene)-pyrrolidine-2,3,4-trione 3-oxime]: the “% inhibition of the writhing reaction” value with male NMRI mice stood at 52%.
Take `O=C1NC(=Cc2ccc(Cl)cc2Cl)C(=O)C1=NO` [Example 7, 5-(2,4-Dichlorobenzylidene)-pyrrolidine-2,3,4-trione 3-oxime]: the melting point is 180 °C. Besides, in the data set with male NMRI mice, the “% inhibition of the writhing reaction” value is given as 46%.
As to `O=C1NC(=Cc2c(Cl)cccc2Cl)C(=O)C1=NO` [Example 8, 5-(2,6-Dichlorobenzylidene)-pyrrolidine-2,3,4-trione 3-oxime], the melting point worked out at 232 °C. Moreover, the “% inhibition of the writhing reaction” value in the data set with male NMRI mice turned out to be 51%.
For `O=C1NC(=Cc2cccc(Cl)c2)C(=O)C1=NO` [Example 9, 5-(3-Chlorobenzylidene)-pyrrolidine-2,3,4-trione 3-oxime] the same measures were 185 °C and 81%.

Values taken from patent publication US6716872B2, “Substituted pyrrolidine-2,3,4-trione 3-oxime derivatives which are active as NMDA receptor antagonists” (Gruenenthal GmbH, priority 1999, dated 2004).
